US9676793B2, “Co-crystals of 5-amino-2-oxothiazolo[4,5-d]pyrimidin-3(2H)-yl-5-hydroxymethyl tetrahydrofuran-3-yl acetate and methods for preparing and using the same” (Hoffmann-La Roche Inc., priority 2014, dated 2017)
Like-named read-outs stand apart in the source and are kept apart here.

Tested on: HBV
Test: microbe, parasite or virus in culture
Procedure: Direct inhibition of viral replication was evaluated by monitoring the levels of secreted HBV DNA and the levels of HBV surface antigen (HBsAg) in cultures containing HBV infected HepaRG cells.
After three days incubation, the combined medium was replaced with differentiation medium and the cells were maintained in the differentiation medium for an additional 2 to 4 weeks. The differentiation medium was renewed every 2 to 3 days throughout the incubation period. Differentiated HepaRG cells (HepaRGd) display hepatocyte-like cell islands surrounded by monolayer of biliary-like cells. Prior to HBV infection and compound treatment, HepaRGd cells were seeded into collagen I coated 96-well plates (Gibco, Cat# A11428-03) at 50,000 to 60,000 cells per well. Cells were allowed to recover their differentiated phenotype in 96-well plates for at least 1 week after plating prior to HBV infection.
HBV inoculum was collected from HepG2.2.15 cultured cells, a cell line that supports HBV (genotype D, strain ayw) replication and virion secretion as disclosed in Sells M A., et al., PNAS, 84(4): 1005-1009. HepG2.2.15 cells were maintained in DMEM+GlutaMAX-I (Invitrogen) containing 1× Pen/Strep (Invitrogen), 10% FBS, and 0.25 mg/ml G-418 (Invitrogen) using hyperflasks (Corning) pre-coated with collagen I (BD Biosciences). Upon reaching confluency, HepG2.2.15 culture media was replaced with DMEM+GlutaMAX-I containing 1× Pen-Strep, 2.5% FBS, and 1% DMSO for 3 days and then replaced with DMEM+GlutaMAX-I containing 1× Pen-Strep and 1% DMSO. The 1% DMSO containing media was collected every 3 to 4 days over a two week period and HBV infectious virions and subviral particles were pelleted by ultracentrifugation through a 20% sucrose cushion in a Ti 45 Beckman rotor at 45,000 rpm for 3 hours at 4° C. The pellets were resuspended in WEM at a concentration of 10^8-10^9 genome equivalents (GE) per ml, determined by real time PCR as described below using a genotype D HBV containing plasmid DNA as an internal standard. To evaluate the infectivity of the inoculum, HepaRGd cells in 96-well plates were infected in differentiation medium containing 50 to 200 GE/cell and 4% PEG 8000 (PolyEthylene Glycol 8000, Sigma, Cat# P5413-500G) for 16 hr at 37° C. At the end of the infection, HBV inoculum was removed and cells were washed 3 times with differentiation medium. Differentiation medium was replenished every 2 to 3 days and HBV replication was monitored by measuring secreted HBV DNA, hepatitis B surface (HBsAg) and/or e (HBeAg) antigens.
HBsAg was detected from 50 μL of HBV infected HepaRG supernatants using the HBsAg chemiluminescence immunoassay (CLIA) kit following instructions as recommended by the manufacturer (Autobio Diagnostics Co., Zhengzhou, China). HBV DNA was extracted from 50 μL of HBV infected HepaRGd supernatants using the MagNA Pure 96 DNA and Viral NA Small Volume Kit (Roche, Cat#05 467 497 001). […] All PCR reactions were performed using the ViiA7 Real Time PCR system (Life Technologies).
Both direct and indirect inhibitory activity of HBV replication was measured. […] Aliquots of these reagents were added to independent wells of a 96-well culture plate containing HBV infected HepaRGd cells on day 4 post infection. The final concentration of DMSO in each well was 2%. The HepaRGd cells used in the inhibition study were maintained in differentiation media containing 2% DMSO.

In the case of `Nc1nc2c(sc(=O)n2[C@@H]2O[C@H](CO)C[C@H]2O)c(=O)[nH]1` [R06871765], the EC50 (Hepatitis B virus, 168 h, read-out: EC50 (HBV DNA or HBsAg)) is reported as over 200 µM, the CC50 (Hepatitis B virus, read-out: EC/CC50 (μM), HBV DNA) is reported as over 200 µM and the CC50 (Hepatitis B virus, read-out: EC/CC50 (μM), HBsAg) is reported as over 200 µM. The inhibition at 0.82 µM (Hepatitis B virus, read-out: HBV DNA (% inhibition), 0.82 μM, EXP ID 10/15/2012 AL) was -1.24%, the inhibition at 0.82 µM (Hepatitis B virus, read-out: HBV DNA (% inhibition), 0.82 μM, EXP ID 11/1/2012) was 12.2% and the inhibition at 2.47 µM (Hepatitis B virus, read-out: HBV DNA (% inhibition), 2.47 μM, EXP ID 10/15/2012 AL) was -16%. For the same compound, the inhibition at 2.47 µM (Hepatitis B virus, read-out: HBV DNA (% inhibition), 2.47 μM, EXP ID 11/1/2012) was -0.77%, the inhibition at 7.41 µM (Hepatitis B virus, read-out: HBV DNA (% inhibition), 7.41 μM, EXP ID 10/15/2012 AL) was -17.4% and the inhibition at 7.41 µM (Hepatitis B virus, read-out: HBV DNA (% inhibition), 7.41 μM, EXP ID 11/1/2012) was -23.5%. For the same compound, the inhibition at 22.22 µM (Hepatitis B virus, read-out: HBV DNA (% inhibition), 22.22 μM, EXP ID 10/15/2012 AL) was 4.96%, the inhibition at 22.22 µM (Hepatitis B virus, read-out: HBV DNA (% inhibition), 22.22 μM, EXP ID 11/1/2012) was 5.69% and the inhibition at 66.67 µM (Hepatitis B virus, read-out: HBV DNA (% inhibition), 66.67 μM, EXP ID 10/15/2012 AL) was -0.65%. For the same compound, the inhibition at 66.67 µM (Hepatitis B virus, read-out: HBV DNA (% inhibition), 66.67 μM, EXP ID 11/1/2012) was 21.1%, the inhibition at 200 µM (Hepatitis B virus, read-out: HBV DNA (% inhibition), 200 μM, EXP ID 10/15/2012 AL) was 12.2% and the inhibition at 200 µM (Hepatitis B virus, read-out: HBV DNA (% inhibition), 200 μM, EXP ID 11/1/2012) was 3.11%. For the same compound, the inhibition at 0.82 µM (Hepatitis B virus, read-out: HBsAg (% inhibition), 0.82 μM, EXP ID 10/15/2012 AL) was 10.5%, the inhibition at 0.82 µM (Hepatitis B virus, read-out: HBsAg (% inhibition), 0.82 μM, EXP ID 10/15/2012 VL) was 14.7% and the inhibition at 0.82 µM (Hepatitis B virus, read-out: HBsAg (% inhibition), 0.82 μM, EXP ID 11/1/2012) was 14.8%. For the same compound, the inhibition at 2.47 µM (Hepatitis B virus, read-out: HBsAg (% inhibition), 2.47 μM, EXP ID 10/15/2012 AL) was -4.7%, the inhibition at 2.47 µM (Hepatitis B virus, read-out: HBsAg (% inhibition), 2.47 μM, EXP ID 10/15/2012 VL) was 11.8% and the inhibition at 2.47 µM (Hepatitis B virus, read-out: HBsAg (% inhibition), 2.47 μM, EXP ID 11/1/2012) was 14.7%. It also gave an inhibition at 7.41 µM (Hepatitis B virus, read-out: HBsAg (% inhibition), 7.41 μM, EXP ID 10/15/2012 AL) of -11.7%, an inhibition at 7.41 µM (Hepatitis B virus, read-out: HBsAg (% inhibition), 7.41 μM, EXP ID 10/15/2012 VL) of 3.92% and an inhibition at 7.41 µM (Hepatitis B virus, read-out: HBsAg (% inhibition), 7.41 μM, EXP ID 11/1/2012) of 1.81%. For the same compound, the inhibition at 22.22 µM (Hepatitis B virus, read-out: HBsAg (% inhibition), 22.22 μM, EXP ID 10/15/2012 AL) was 0.44%, the inhibition at 22.22 µM (Hepatitis B virus, read-out: HBsAg (% inhibition), 22.22 μM, EXP ID 10/15/2012 VL) was 3.98% and the inhibition at 22.22 µM (Hepatitis B virus, read-out: HBsAg (% inhibition), 22.22 μM, EXP ID 11/1/2012) was 0.66%. For the same compound, the inhibition at 66.67 µM (Hepatitis B virus, read-out: HBsAg (% inhibition), 66.67 μM, EXP ID 10/15/2012 AL) was -2.13%, the inhibition at 66.67 µM (Hepatitis B virus, read-out: HBsAg (% inhibition), 66.67 μM, EXP ID 10/15/2012 VL) was 14.5% and the inhibition at 66.67 µM (Hepatitis B virus, read-out: HBsAg (% inhibition), 66.67 μM, EXP ID 11/1/2012) was 5.02%. For the same compound, the inhibition at 200 µM (Hepatitis B virus, read-out: HBsAg (% inhibition), 200 μM, EXP ID 10/15/2012 AL) was 2.48%, the inhibition at 200 µM (Hepatitis B virus, read-out: HBsAg (% inhibition), 200 μM, EXP ID 10/15/2012 VL) was 4.25% and the inhibition at 200 µM (Hepatitis B virus, read-out: HBsAg (% inhibition), 200 μM, EXP ID 11/1/2012) was 16%. The “direct inhibition of HBV viral replication” value (cultured HepaRG cells) was “did not exert any direct anti-HBV effect”, the CC50 (read-out: EC/CC50 (μM), HBV DNA, EXP ID 11/1/2012) was over 200 µM and the CC50 (read-out: EC/CC50 (μM), HBsAg, EXP ID 10/15/2012 VL) was over 200 µM. For the same compound, the CC50 (read-out: EC/CC50 (μM), HBsAg, EXP ID 11/1/2012) was over 200 µM.
